# In patent US20080089947A1, “Calcium Influx Inhibitors in the Treatment of Ischemia” (priority 2006, published 2008):
# “Also recorded” adds a separate entry of the source.
# Columns and labels:
# [1] = test system: mitochondrial calcium uptake; test: 45Ca2+ uptake with ATP in mitochondria from non-ischemic and 24 h cold-stored livers; assay type: biochemical, rat
# Protocol: Methods: Rat livers were perfused and stored using a previously reported technique (Belous et al., 2003). Briefly, an abdominal incision was made and the portal vein was cannulated with a 20-gauge cannula. The liver was then perfused with 30 ml 4° C. University of Wisconsin solution (UW). Half of the liver was processed for calcium uptake experiments immediately, while the other half was first stored for 24 hours in 4° C. UW solution (ischemic cold storage). Mitochondria were isolated from the liver as described in Example 1. Mitochondrial calcium uptake experiments were performed on isolated mitochondria from both the ischemic and non-ischemic portions of the liver as described in Example 1. In order to simulate the cellular conditions present during ischemia/reperfusion, 1 mM ATP was added to the incubation buffer. The selective, membrane-permeable PLC inhibitor, U-73122, was added to mitochondrial calcium uptake reaction tubes to a final concentration of 5 μM. This compound was tested on mitochondria isolated from both ischemic and non-ischemic livers to determine the effect of PLC inhibition on mitochondrial calcium uptake following ischemia/reperfusion. […] Ruthenium red (10 μM) was used to block the uniporter and ensure that all observed calcium uptake was ruthenium red-sensitive, and thus entering solely through the uniporter. To simulate reperfusion, mitochondria were incubated for 30 minutes in a 37° C. water bath with ATP present, after which the total mitochondrial calcium uptake was quantified as described in Example 1.
# [2] = test system: mitochondrial calcium uptake (mitochondrial calcium uniporter); test: 45Ca2+ uptake in isolated liver mitochondria; assay type: biochemical, rat; conditions: for EC50: isolated mitochondria, pyruvate and malate, read-out: EC50 of inhibition of mitochondrial calcium uptake
# Protocol: Livers were isolated from male Sprague-Dawley rats (300 g). Rats were anesthetized with isoflurane and sacrificed by cervical dislocation. […] Briefly, the liver was minced and homogenized in liver homogenization buffer (LHB)(0.2 M mannitol, 50 mM sucrose, 10 mM KCl, and 1 mM Na2EDTA, pH=7.4, KOH). The homogenate was filtered through gauze and centrifuged 2 times for 10 min at 1,000× g. The supernatant was collected and centrifuged for 10 min at 3,000× g. The pellet was washed twice and resuspended in calcium-free LHB without EDTA to a concentration of 2 mg/mL. All steps were performed at 4° C.
# A combination of metabolic substrates pyruvic acid and malic acid (final concentration 1 mM each) was used as a source of mitochondrial energy. Radioactive ^45Ca^2+ (NEN Life Sciences Products, Inc., Boston, Mass.) was added to the incubation buffer (final concentration range: 0.1-2.0 μM). The experiments were initiated by addition of mitochondria to the incubation buffer (final concentration 0.2 mg/ml). 2-APB (in DMSO) was added at concentrations from 0-100 μM to determine its effects on mitochondrial calcium uptake. Mitochondria were incubated in a 37° C. shaking water bath for 30 minutes, filtered, and washed. Accumulated mitochondrial ^45Ca^2+ was then measured using liquid scintillation counting in a Beckman LS6000IC beta counter. Mitochondria in incubation buffer without pyruvic acid and malic acid served as background controls. Ruthenium red (10 μM), a uniporter antagonist, was tested in all conditions to determine inhibitory capacity on observed mitochondrial calcium uptake, and to ensure that all observed calcium uptake was through the uniporter.
# A combination of metabolic substrates pyruvic acid and malic acid was used as a source of mitochondrial energy. Radioactive ^45Ca^2+ was added to the incubation buffer (final concentration range: 0.1-2.0 μM). […] The calcium uptake experiments were initiated by addition of mitochondria to the incubation buffer (final concentration 0.2 mg/ml). Mitochondria were incubated in a 37° C. shaking water bath for 30 minutes, filtered, and washed, and calcium uptake quantified. Mitochondria in incubation buffer without pyruvic acid and malic acid served as background controls.
# [3] = cited from earlier work
# [4] = test system: liver ischemia/reperfusion injury; test: 70% liver ischemia/reperfusion, ruthenium red pretreatment; assay type: in vivo, rat
# Protocol: Thirty minutes prior to the initiation of liver ischemia, animals received ruthenium red (30 mg/kg in NaCl) or vehicle (0.9% NaCl) IV. Ischemia was carried out for one hour. The total anesthesia time for the animals was 90 minutes. Sham operated animals received laparotomy, mobilization of the liver, and underwent equivalent anesthesia. Following vascular clamp removal, animals were allowed to reperfuse for periods of 15 minutes, 1 hr, 3 hr, or 6 hr. At the time of animal sacrifice, serum was collected, and liver tissue was preserved for histological analysis. A total of 40 animals were used for this experiment. Ten animals were used for each time point: 4 ischemia/reperfusion, 4r ischemia/reperfusion with ruthenium red pretreatment, and 2 sham operated animals. […] All experimental measurements and data were obtained as detailed in Example 2.
# PLC = conditions: read-out: EC50 reported for PLC inhibition in intact cells; cited from earlier work
# hepG2 cells = conditions: 100 μM in UW prior to cold storage, 6 hour ischemic
# Protocol: To investigate the cellular mechanisms of 2-APB, an in vitro model using hepG2 cells transfected with GFP-tagged cytochrome c was used. […] Cells were grown at 37° C., 5% CO2 in MEM (ATCC, Manassas, Va.), with 10% fetal bovine serum, and 1% penicillin/streptomycin to 80% confluence. The media was replaced with UW solution and cells were incubated at 4° C. in hypoxic conditions for 6 hours. Hypoxia was achieved by placing the cells in an airtight incubator (Form a Scientifica, Marietta, Ohio), which was flushed with 5% CO2 and 95% N2 until the oxygen content in the container reached <0.1%, as verified using a dissolved O2 meter (Model 4000, VWR Scientific Products, Suwannee, Ga.). To render the storage solution hypoxic before experiments were carried out, UW was preincubated in the hypoxic chamber in an open sterile container for 8 h before experiments were carried out. […] Following 6 hours of hypothermic storage, the UW was replaced with warm, oxygenated media, and the cells were incubated at 37° C. Cytoplasmic extracts were harvested in lysis buffer (10 mM of KCl, 10 mM of HEPES, 1 mM of NaEDTA, 200 mM of Mannitol, 50 mM of sucrose) immediately following storage and after 60, 120, and 180 min of rewarming. HepG2 cytoplasmic extracts were harvested before exposure to storage conditions to serve as a control (untreated control). […]
# [5] = test system: liver ischemia/reperfusion injury
# Protocol: Methods: Following overnight fast, male Sprague-Dawley rats were placed under general anesthesia with isoflurane gas (3%, 2 L O2). Via a midline incision, a laparotomy was performed and the portal vein, hepatic artery, and bile duct were identified and dissected free from surrounding structures. […] Approximately 70% liver ischemia was created by using an atraumatic vessel clamp (S&T Microclamp B-3, Fine Science Tools, Foster City, Calif.) to occlude the portal vein and hepatic artery branches to the median and left liver lobes. […] The clamp was removed after 1 hour and the livers were given three hours to reperfuse with blood while the animals were conscious. Liver injury was assessed by serum levels of AST, ALT, LDH, which are three standard serum markers of acute ischemia/reperfusion injury to the liver. Histologic liver analysis using H&E staining and TUNEL assay, which identifies terminally damaged (apoptotic) cells, were used to look directly at cell damage in the collected livers.
# Serum Transaminase Determinations: Serum collected from each animal at the time of euthanasia was analyzed for aspartate aminotransferase (AST), alanine aminotransferase (ALT), and lactic acid dehydrogenase (LDH) concentrations.
# Assessment of apoptosis: In order to quantitate the rate of apoptosis in a sensitive manner, the inventors performed terminal deoxynucleotidyl transferase-mediated deoxyuridine triphosphate nick-end labeling (TUNEL) on paraffin embedded tissue sections from each animal. This assay was performed following the manufacturer's recommendations for a commercially available kit (ApopTag Plus Fluorescein In Situ Apoptosis Detection Kit, Chemicon International, Inc., Temecula, Calif.). Five randomly selected fields from each tissue section were examined at an original magnification of 200×. The number of positively staining cells per field was recorded. The average number of positively staining nuclei per field for each animal was used for analysis.
# Quantitation of liver necrosis: Paraffin embedded tissue sections were stained with hematoxylin and eosin (H&E) and examined at an original magnification of 200×. Digital photomicrographs were made from five randomly selected fields of each tissue section. […] ImagePro software was used to create specific overlays of any region of necrosis in each of the photomicrographs. Using these overlays, percent area necrosis was calculated for each photomicrograph. The average percent area necrosis for each animal was then used for analysis.
# [6] = test system: liver ischemia/reperfusion injury; remark: listed apart in the source
# Protocol: 2-APB (2 mg/kg in DMSO), or vehicle (DMSO) was injected into the portal vein following 1 hour of ischemia, concurrent with removal of the vascular clamp. Animals were sacrificed after 3 hours of reperfusion (n=6 per group). Serum AST, ALT, and LDH levels were measured, and liver samples were evaluated histologically using H&E and TUNEL staining. To investigate the effect of 2-APB at the cellular level, an I/R model in HepG2 cells transfected with GFP-tagged cytochrome c was used. Statistical significance was assessed using Student t-test.
# liver transplantation = conditions: donor livers cold stored 24 hours in UW containing 2-APB
# Protocol: In further experiments, full scale liver transplants were performed in rats. Livers were harvested from male Sprague-Dawly rats and cold stored for 24 hours in UW solution, or UW containing 2-APB. The livers were then removed from cold storage and transplanted into recipient rats. The operations were performed under general anesthesia, and the animals were followed after surgery for 2 days.
# [7] = 0.5-7.5 μM, 0.2 μM 45Ca2+, baseline 0.14% DMSO
# [8] = 30 mg/kg, 30 min before 1 h ischemia, 6 hours of reperfusion
compound,measurement,setting,value
"COc1ccc2c(c1)CC[C@@H]1[C@@H]2CC[C@]2(C)[C@@H](NCCCCCCN3C(=O)CCC3=O)CC[C@@H]12 [U-73343, 1-[6-((17β-3-Methoxyestra-1,3,5(10)-trien-17-yl)amino)hexyl]-2,5-pyrrolidinedione]",mitochondrial calcium uptake,"[1]; 5 μM, mitochondria from ischemic livers (24 h 4° C. UW)",slight and insignificant decrease; also recorded: no effect
same,mitochondrial calcium uptake,"[1]; 5 μM, mitochondria from non-ischemic livers",slight but significant increase; also recorded: did not
same,mitochondrial calcium uptake,[2]; [7],no effect; also recorded: did not significantly affect
Ru360,solubility in water,[3],soluble in water
N.N.N.N.N.N.N.N.N.N.N.N.N.N.[Cl-].[Cl-].[Cl-].[Cl-].[Cl-].[Cl-].[O-2].[O-2].[Ru+3].[Ru+3].[Ru+4] [ruthenium red],mitochondrial calcium uptake,"[1]; 10 μM ruthenium red, mitochondria from both ischemic and non-ischemic livers",prevented calcium uptake
same,mitochondrial calcium uptake,"[1]; 10 μM ruthenium red, mitochondria from both ischemic and non-ischemic livers, listed as Ruthenium red",completely blocked
same,mitochondrial calcium uptake,"[2]; 10 μM ruthenium red, 30 min, 37° C.",completely blocked
same,solubility in water,[3],soluble in water
same,serum ALT,[4]; [8],294±39
same,serum AST,[4]; [8],597±121
same,liver necrosis,[4]; 3 and 6 hours of reperfusion,significantly decreased
same,AST and ALT levels,[4]; 3 hours of reperfusion,trend for the animals pretreated with ruthenium red to have lower AST and ALT levels
same,"liver necrosis, percent area",[4]; 3 hours of reperfusion,5%±2%
same,reduction in ALT levels,[4]; 6 hour reperfusion time point,4 fold
same,reduction in AST levels,[4]; 6 hour reperfusion time point,2.5 fold
same,"liver necrosis, percent area",[4]; 6 hours of reperfusion,3%±1%
same,rate of apoptosis (TUNEL),"[4]; all reperfusion time points (15 min, 1, 3, 6 hr)",significantly decreased
same,AST or ALT levels in sham operated animals,[4]; pretreatment of sham operated animals vs. vehicle alone,did not alter
"COc1ccc2c(c1)CCC1C2CCC2(C)C(NCCCCCCN3C(=O)C=CC3=O)CCC12 (stereo not drawn) [U-73122, 1-[6-((17β-3-Methoxyestra-1,3,5(10)-trien-17-yl)amino)hexyl]-1H-pyrrole-2,5-dione]",decrease of mitochondrial calcium uptake,"[1]; 5 μM, mitochondria from ischemic livers (24 h 4° C. UW), vs. ATP and calcium alone",85±2%
same,decrease of mitochondrial calcium influx,"[1]; 5 μM, mitochondria from non-ischemic livers, vs. ATP and calcium alone",54±5%
same,EC50,PLC,1000 to 2100 nM
same,inhibition of mitochondrial calcium uptake,[2]; 5 μM or greater U-73122,90-100%
same,mitochondrial calcium uptake,[2]; [7],dose-dependently inhibited
same,EC50,"[2]; 30 min, 37° C.",2000 to 3000 nM
same,solubility in DMSO,[3],1 mg/mL
same,solubility in ethanol,[3],0.5 mg/mL
"NCCOB(c1ccccc1)c1ccccc1 [2-APB, 2-aminoethoxydiphenyl borate]",release of GFP-tagged cytochrome c into the cytoplasm,hepG2 cells,prevented this release
same,"liver damage by serum AST, ALT, LDH in sham-operated animals","[5]; 2 mg/kg in DMSO, portal vein, after sham operation","neither 2-APB nor the vehicle, DMSO, were damaging to the liver"
same,"rise in serum AST, ALT and LDH","[5]; 2 mg/kg in DMSO, portal vein, before 1 h ischemia, 3 h reperfusion","eliminated the rise in AST, ALT and LDH"
same,liver histology 400×,"[5]; 2 mg/kg portal vein before 1 h ischemia, 3 h reperfusion",Cells are healthy and appear identical to the normal liver cells
same,cells undergoing cell death,"[5]; 2 mg/kg portal vein before 1 h ischemia, 3 h reperfusion, H&E and TUNEL",≤ 2%
same,"elevation of serum AST, ALT and LDH","[6]; 2 mg/kg in DMSO, portal vein at onset of reperfusion, 3 h reperfusion",significantly inhibited
same,"liver necrosis, H&E histology",[6]; 2-APB administered during reperfusion,little evidence of liver necrosis
same,Mortality at 2 days,liver transplantation,0%
same,EC50,"[2]; 30 min, 37° C.",2000 to 3000 nM
same,mitochondrial calcium influx,[2]; range of 1-100 μM 2-APB,consistently and dose-dependently inhibited
same,solubility in DMSO,[3],20 mg/mL
same,solubility in ethanol,[3],25 mg/mL
